Reference: PubChem BioAssay AID256 (DTP/NCI, 2004)
Where “and” joins values, the source holds several entries; their conditions need not be identical. Equal values may be shown once. Toxic doses and inconclusive results are not listed. The calls were made as follows: active = survival T/C of 150% or more; inactive = T/C below 125% in these data.

Tested on: CD2F1 mice, L1210 leukemia ip, survival T/C
Assay: NCI In Vivo Anticancer Drug Screen. Data for tumor model L1210 Leukemia (intraperitoneal) in CD2F1 (CDF1) mice
Conditions: higher = longer survival
Procedure, shortened: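 Activity against a transplanted murine tumor was judged by comparing the compound group with a vehicle group. The outcome in the treated animals was divided by that in the controls.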

Measured: T/C

Cc1[nH]c(=O)[nH]c(=O)c1N(CCF)CCCl
inactive: endpoint: mean survival time, dose: 1.8 mg/kg/injection, schedule: Q01DX009 (ip), vehicle: saline 98 % of control | endpoint: mean survival time, dose: 3.0 mg/kg/injection, schedule: Q01DX009 (ip), vehicle: saline 102 % of control | endpoint: mean survival time, dose: 5.0 mg/kg/injection, schedule: Q01DX009 (ip), vehicle: saline 104 % of control | endpoint: mean survival time, dose: 8.0 mg/kg/injection, schedule: Q01DX001 (ip), vehicle: acid diluted with saline 95 % of control and 102 % of control | endpoint: mean survival time, dose: 8.0 mg/kg/injection, schedule: Q01DX001 (ip), vehicle: saline 98 % of control | endpoint: mean survival time, dose: 8.4 mg/kg/injection, schedule: Q01DX009 (ip), vehicle: saline 106 % of control | endpoint: mean survival time, dose: 8.4 mg/kg/injection, schedule: Q04DX003 (ip), vehicle: saline 108 % of control | endpoint: mean survival time, dose: 14.0 mg/kg/injection, schedule: Q01DX009 (ip), vehicle: saline 113 % of control | endpoint: mean survival time, dose: 14.0 mg/kg/injection, schedule: Q04DX003 (ip), vehicle: saline 105 % of control | endpoint: mean survival time, dose: 16.0 mg/kg/injection, schedule: Q01DX001 (ip), vehicle: acid diluted with saline 97 % of control and 100 % of control | endpoint: mean survival time, dose: 16.0 mg/kg/injection, schedule: Q01DX001 (ip), vehicle: saline 94 % of control and 100 % of control | endpoint: mean survival time, dose: 23.0 mg/kg/injection, schedule: Q01DX001 (ip), vehicle: saline 117 % of control | endpoint: mean survival time, dose: 23.0 mg/kg/injection, schedule: Q01DX009 (ip), vehicle: saline 107 % of control | endpoint: mean survival time, dose: 23.0 mg/kg/injection, schedule: Q04DX003 (ip), vehicle: saline 114 % of control | endpoint: mean survival time, dose: 32.0 mg/kg/injection, schedule: Q01DX001 (ip), vehicle: acid diluted with saline 96 % of control and 102 % of control | endpoint: mean survival time, dose: 32.0 mg/kg/injection, schedule: Q01DX001 (ip), vehicle: saline 105 % of control and 109 % of control | endpoint: mean survival time, dose: 39.0 mg/kg/injection, schedule: Q01DX001 (ip), vehicle: saline 117 % of control | endpoint: mean survival time, dose: 64.0 mg/kg/injection, schedule: Q01DX001 (ip), vehicle: acid diluted with saline 107 % of control and 110 % of control | endpoint: mean survival time, dose: 64.0 mg/kg/injection, schedule: Q01DX001 (ip), vehicle: saline 115 % of control and 120 % of control | endpoint: mean survival time, dose: 65.0 mg/kg/injection, schedule: Q01DX001 (ip), vehicle: saline 123 % of control | endpoint: median survival time, dose: 0.5 mg/kg/injection, schedule: Q03HX024 (ip), vehicle: acid diluted with saline 107 % of control | endpoint: median survival time, dose: 1.0 mg/kg/injection, schedule: Q03HX016 (ip), vehicle: acid diluted with saline 98 % of control | endpoint: median survival time, dose: 1.0 mg/kg/injection, schedule: Q03HX024 (ip), vehicle: acid diluted with saline 105 % of control | endpoint: median survival time, dose: 2.0 mg/kg/injection, schedule: Q01DX009 (ip), vehicle: acid diluted with saline 107 % of control | endpoint: median survival time, dose: 2.0 mg/kg/injection, schedule: Q03HX008 (ip), vehicle: acid diluted with saline 96 % of control | endpoint: median survival time, dose: 2.0 mg/kg/injection, schedule: Q03HX016 (ip), vehicle: acid diluted with saline 100 % of control | endpoint: median survival time, dose: 2.0 mg/kg/injection, schedule: Q03HX024 (ip), vehicle: acid diluted with saline 108 % of control | endpoint: median survival time, dose: 2.0 mg/kg/injection, schedule: Q03HX024 (oral), vehicle: acid diluted with saline 100 % of control | endpoint: median survival time, dose: 4.0 mg/kg/injection, schedule: Q01DX009 (ip), vehicle: acid diluted with saline 117 % of control | endpoint: median survival time, dose: 4.0 mg/kg/injection, schedule: Q01DX009 (sc), vehicle: acid diluted with saline 104 % of control | endpoint: median survival time, dose: 4.0 mg/kg/injection, schedule: Q03HX008 (ip), vehicle: acid diluted with saline 96 % of control | endpoint: median survival time, dose: 4.0 mg/kg/injection, schedule: Q03HX016 (ip), vehicle: acid diluted with saline 111 % of control | endpoint: median survival time, dose: 4.0 mg/kg/injection, schedule: Q03HX024 (ip), vehicle: acid diluted with saline 105 % of control | endpoint: median survival time, dose: 4.0 mg/kg/injection, schedule: Q03HX024 (oral), vehicle: acid diluted with saline 100 % of control | endpoint: median survival time, dose: 4.0 mg/kg/injection, schedule: Q04DX003 (ip), vehicle: acid diluted with saline 96 % of control | endpoint: median survival time, dose: 8.0 mg/kg/injection, schedule: Q01DX009 (ip), vehicle: acid diluted with saline 108 % of control | endpoint: median survival time, dose: 8.0 mg/kg/injection, schedule: Q01DX009 (oral), vehicle: acid diluted with saline 100 % of control | endpoint: median survival time, dose: 8.0 mg/kg/injection, schedule: Q01DX009 (sc), vehicle: acid diluted with saline 100 % of control | endpoint: median survival time, dose: 8.0 mg/kg/injection, schedule: Q03HX008 (ip), vehicle: acid diluted with saline 100 % of control | endpoint: median survival time, dose: 8.0 mg/kg/injection, schedule: Q03HX008 (oral), vehicle: acid diluted with saline 106 % of control | endpoint: median survival time, dose: 8.0 mg/kg/injection, schedule: Q03HX016 (ip), vehicle: acid diluted with saline 97 % of control | endpoint: median survival time, dose: 8.0 mg/kg/injection, schedule: Q03HX016 (oral), vehicle: acid diluted with saline 100 % of control | endpoint: median survival time, dose: 8.0 mg/kg/injection, schedule: Q03HX024 (ip), vehicle: acid diluted with saline 108 % of control | endpoint: median survival time, dose: 8.0 mg/kg/injection, schedule: Q03HX024 (oral), vehicle: acid diluted with saline 100 % of control | endpoint: median survival time, dose: 8.0 mg/kg/injection, schedule: Q04DX003 (ip), vehicle: acid diluted with saline 100 % of control | endpoint: median survival time, dose: 8.0 mg/kg/injection, schedule: Q08DX002 (ip), vehicle: acid diluted with saline 100 % of control | endpoint: median survival time, dose: 16.0 mg/kg/injection, schedule: Q01DX001 (ip), vehicle: acid diluted with saline 98 % of control | endpoint: median survival time, dose: 16.0 mg/kg/injection, schedule: Q01DX001 (sc), vehicle: acid diluted with saline 98 % of control | endpoint: median survival time, dose: 16.0 mg/kg/injection, schedule: Q01DX009 (ip), vehicle: acid diluted with saline 120 % of control | endpoint: median survival time, dose: 16.0 mg/kg/injection, schedule: Q01DX009 (oral), vehicle: acid diluted with saline 106 % of control | endpoint: median survival time, dose: 16.0 mg/kg/injection, schedule: Q01DX009 (sc), vehicle: acid diluted with saline 104 % of control | endpoint: median survival time, dose: 16.0 mg/kg/injection, schedule: Q03HX008 (ip), vehicle: acid diluted with saline 96 % of control | endpoint: median survival time, dose: 16.0 mg/kg/injection, schedule: Q03HX008 (oral), vehicle: acid diluted with saline 112 % of control | endpoint: median survival time, dose: 16.0 mg/kg/injection, schedule: Q03HX016 (ip), vehicle: acid diluted with saline 102 % of control | endpoint: median survival time, dose: 16.0 mg/kg/injection, schedule: Q03HX016 (oral), vehicle: acid diluted with saline 112 % of control | endpoint: median survival time, dose: 16.0 mg/kg/injection, schedule: Q03HX024 (oral), vehicle: acid diluted with saline 112 % of control | endpoint: median survival time, dose: 16.0 mg/kg/injection, schedule: Q04DX003 (ip), vehicle: acid diluted with saline 108 % of control | endpoint: median survival time, dose: 16.0 mg/kg/injection, schedule: Q04DX003 (oral), vehicle: acid diluted with saline 106 % of control | endpoint: median survival time, dose: 16.0 mg/kg/injection, schedule: Q08DX002 (ip), vehicle: acid diluted with saline 105 % of control | endpoint: median survival time, dose: 32.0 mg/kg/injection, schedule: Q01DX001 (ip), vehicle: acid diluted with saline 98 % of control | endpoint: median survival time, dose: 32.0 mg/kg/injection, schedule: Q01DX001 (sc), vehicle: acid diluted with saline 100 % of control | endpoint: median survival time, dose: 32.0 mg/kg/injection, schedule: Q01DX009 (oral), vehicle: acid diluted with saline 112 % of control | endpoint: median survival time, dose: 32.0 mg/kg/injection, schedule: Q03HX008 (ip), vehicle: acid diluted with saline 104 % of control | endpoint: median survival time, dose: 32.0 mg/kg/injection, schedule: Q04DX003 (ip), vehicle: acid diluted with saline 108 % of control | endpoint: median survival time, dose: 32.0 mg/kg/injection, schedule: Q04DX003 (oral), vehicle: acid diluted with saline 112 % of control | endpoint: median survival time, dose: 32.0 mg/kg/injection, schedule: Q08DX002 (ip), vehicle: acid diluted with saline 100 % of control | endpoint: median survival time, dose: 64.0 mg/kg/injection, schedule: Q01DX001 (ip), vehicle: acid diluted with saline 98 % of control | endpoint: median survival time, dose: 64.0 mg/kg/injection, schedule: Q01DX001 (oral), vehicle: acid diluted with saline 112 % of control | endpoint: median survival time, dose: 64.0 mg/kg/injection, schedule: Q01DX001 (sc), vehicle: acid diluted with saline 100 % of control | endpoint: median survival time, dose: 64.0 mg/kg/injection, schedule: Q01DX009 (oral), vehicle: acid diluted with saline 112 % of control | endpoint: median survival time, dose: 64.0 mg/kg/injection, schedule: Q04DX003 (ip), vehicle: acid diluted with saline 90 % of control | endpoint: median survival time, dose: 64.0 mg/kg/injection, schedule: Q04DX003 (oral), vehicle: acid diluted with saline 112 % of control | endpoint: median survival time, dose: 64.0 mg/kg/injection, schedule: Q08DX002 (ip), vehicle: acid diluted with saline 98 % of control | endpoint: median survival time, dose: 64.0 mg/kg/injection, schedule: Q08DX002 (oral), vehicle: acid diluted with saline 112 % of control | endpoint: median survival time, dose: 128.0 mg/kg/injection, schedule: Q01DX001 (oral), vehicle: acid diluted with saline 100 % of control | endpoint: median survival time, dose: 128.0 mg/kg/injection, schedule: Q01DX001 (sc), vehicle: acid diluted with saline 100 % of control | endpoint: median survival time, dose: 128.0 mg/kg/injection, schedule: Q04DX003 (oral), vehicle: acid diluted with saline 112 % of control | endpoint: median survival time, dose: 128.0 mg/kg/injection, schedule: Q08DX002 (oral), vehicle: acid diluted with saline 106 % of control | endpoint: median survival time, dose: 256.0 mg/kg/injection, schedule: Q01DX001 (oral), vehicle: acid diluted with saline 100 % of control | endpoint: median survival time, dose: 256.0 mg/kg/injection, schedule: Q01DX001 (sc), vehicle: acid diluted with saline 105 % of control | endpoint: median survival time, dose: 256.0 mg/kg/injection, schedule: Q04DX003 (oral), vehicle: acid diluted with saline 112 % of control | endpoint: median survival time, dose: 256.0 mg/kg/injection, schedule: Q08DX002 (oral), vehicle: acid diluted with saline 100 % of control | endpoint: median survival time, dose: 512.0 mg/kg/injection, schedule: Q01DX001 (oral), vehicle: acid diluted with saline 112 % of control
